From patent US8173133B2, “Acyl pseudodipeptides which carry a functionalized auxiliary arm” (OM Pharma, priority 1999, dated 2012)
In brackets after ≈: the same amount, converted by molar mass.

Legend:
[1] = system: human peripheral blood mononuclear cells; assay: inhibition of E. coli LPS-induced α TNF production in human peripheral blood mononuclear cells; assay type: cell-based; conditions: product 10 μg/ml; for 50% inhibition LPS: LPS concentration at which α TNF production is 50% of control; for max. Inhibition LPS: LPS concentration corresponding to maximum inhibition
Method: (§1) Mononuclear cells of peripheral blood are recovered from buffy coats of 6 healthy donors. Such buffy coat cells are resuspended and mononuclear cells are isolated by centrifugation on a Ficoll-Paque gradient (Amersham Pharmacia). Purified mononuclear cells are resuspended into RPMI-1640 medium supplemented with 10% FCS, antibiotics, mercaptoethanol and L-glutamine. Cell concentration is adjusted to 2×10^6 viable cells/ml.
Product mediated Inhibition is determined by preincubating those products with mononuclear cells, and adding, 1 hour later, serially diluted solutions of LPS capable of inducing α TFN production. […] E. coli LPS is serially diluted (10-fold dilution) to be in the range of 1 to 0.00001 μg/ml
50 μl of 10 μg/ml dilute product solutions in RPMI 1640 medium are dispensed into a microtiter plate. Each assay (10 μg/ml product concentration+dilute E. coli LPS) is run in triplicates and each microtiter plate includes a negative control comprised of plain medium. LPS-induced α TNF production (without inhibitor) is determined by adding E. coli LPS dilutions to RPMI medium.
100 μl of the cell suspension are added to each well containing dilutions of either product or control. Cells are incubated with the products for 1 hour in an incubator at 37° C., under 5% CO2 and a moisture saturated atmosphere.
At the end of the pre-incubation period, 50 μl of serially diluted solutions of E. coli LPS are added. Incubation of mononuclear cells with the product and LPS is extended for 18 hours. At the end of the cell activation period, the microtiter plates are centrifuged, and the supernatants are pooled and frozen at −80° C. as aliquots until time of ELISA assay.
Concentration of αTNF secreted by mononuclear cells is determined by chemiluminescent ELISA (QuantiGlo #QTAOO R&D kit). 4-fold dilutions of supernatant fluid are dispensed into each well of the microtiter plate to which anti-human αTNF antibodies are bound. The microtiter plate is incubated for 4 hours at room temperature. After washing, peroxidase-conjugated anti-human αTNF antibody is added. Following a 2 hour incubation period and a thorough washing, a chemiluminescent substrate is added and chemilunescence is read after 20 minutes. αTNF content in the supernatant fluid is determined with respect to a standard curve covering the 7000 to 0.7 pg/ml range.
Inhibition is characterized by the E. coli LPS concentration which elicits 50% production of α TNF during co-incubation in comparison to a control including only RPMI. This concentration increases as product inhibition activity becomes stronger. Knowing inhibition values of α TNF production, this concentration is given by calculating 100-(αTNF production induced by product and LPS)/(αTNF production induced by LPS alone)*100. From these inhibition data, concentration is determined by linear regression along the line segment which joins 2 LPS dilutions giving approx. 50% inhibition.
Product ability to inhibit α TNF production in mononuclear cells in response to LPS is further characterized by maximum inhibition. […] Results are calculated from a representative experience using all products.

[2] = system: human peripheral blood mononuclear cells; assay: α TNF production by human peripheral blood mononuclear cells; assay type: cell-based; conditions: for α TNF produced: 18 hours
Method: as §1, with “cells/ml” for “cells/ml.”
100 μl of each one of these solutions of acyl dipeptide-like compounds bearing an accessory functional side chain spacer, diluted 100-, 10- or 1-fold in RPMI medium 1640, are dispensed into a microtiter plate. Samples are tested in triplicates, and each microtiter plate includes a negative control made up of plain medium. Dilutions of E. coli LPS (ranging grom 1 to 0.00001 μg/ml) are used as a positive control.
100 μl of the cell suspension are added to each well containing product dilute solutions or control. Cells are incubated with the products for 18 hours in an incubator at 37° C., under 5% CO2 and a moisture saturated atmosphere.
At the end of the incubation period, microtiter plates are centrifuged, and the supernatant fluids are pooled and frozen at −80° C. as aliquots until time of ELISA assay.
Concentration of α TNF secreted by mononuclear cells is determined by chemiluminescent ELISA (QuantiGlo #QTAOO R&D kit). 4-fold supernatant fluid dilutions are dispensed into each well of the microtiter plate to which anti-αTNF antibodies are bound. The microtiter plate is incubated for 4 hours at room temperature. After washing, peroxidase-conjugated anti-human a TNF antibody is added. Following a 2 hour incubation period and thorough washing, a chemiluminescent substrate is added and chemilunescence is read after 20 minutes. α TNF content in the supernatant fluid is determined with respect to a standard curve covering the 7000 to 0.7 pg/ml range.
Results are expressed in pg/ml of α TNF produced. Results derive from an experiment representative of acyl-dipeptide-like compound activity

bone marrow stem cells = assay: bone marrow stem cell proliferation (XTT); assay type: cell-based, C57/BL6 mice; conditions: for Max amplitude: 7 days, XTT 492 nm; for Min amplitude: blank ± 3× standard deviation; for Max concentration: concentration at maximum amplitude; for EC50 conc: concentration corresponding to 50% of maximum amplitude; for Min concentration: lowest concentration inducing a significant proliferation
Excerpt: 6-week old male C57/BL6 mice are killed by CO2 inhalation. The hip, femur, tibia and hind leg bones are removed. The marrow is extracted from the bone lumen by injecting Dulbecco's Modified Eagle Medium (DH medium) from the end portions which had been excised. The stem cells are washed and suspended again in DH medium supplemented with 20% foetal calf serum (FCS) The cell concentration is adjusted to 500000 cells/ml.
Products previously dissolved in DH medium supplemented with 20% FCS, amino acids and antibiotics are serially diluted directly into a microtiter plate. The products are tested in triplicate and each microtiter plate includes a negative control containing plain medium. The final volume in each well is 100 μl.
100 μl of the cell suspension are added to diluted solutions of products and the cells are incubated for 7 days in an incubator at 37° C., under 8% CO2 and a moisture saturated atmosphere. Cell proliferation is determined by measuring the […] of a chromogenic substrate XTT (2,3-bis[2-methoxy-4-nitro-5-sulphophenyl]-2H-tetrazolium-5-carboxanilide) in mitochondria of viable cells.
At the end of the incubation period, 50 μl of the XTT substrate solution (1 mg/ml XTT+0.008 mg/ml phenazine methosulfate) are added to each well. After an 8 hour incubation period at 37° C. under 8% CO2 in a moisture saturated incubator, the microtiter plates are read with a spectrophotometer at 492 nm against a reference sample at 690 nm.
Results are expressed as mean value±standard deviation and plotted as a dose versus response curve. Values for a negative control composed of DH medium (mean±standard deviation) are also graphically shown.
From this dose versus response curve, 3 curve variables are computed:
Max: maximum curve amplitude and corresponding concentration
EC50: concentration corresponding to 50% of maximum amplitude
Min: lowest concentration inducing a significant proliferation corresponding to the blank±3× standard deviation value
Concentration values corresponding to EC50 and Min are determined from line segments joining different points on the curve.
If the curve has no plateau phase but an ascending configuration for the highest concentration being tested, a “>” sign is shown before Max and EC50 values.

## CCCCCCCCCCCC(=O)O[C@H](CCCCCCCCCCC)CC(=O)N[C@H](CC(=O)N[C@@H](CCCCN)C(=O)O)C(=O)NCCC[C@H](COC(=O)CCCCCN)NC(=O)C[C@H](O)CCCCCCCCCCC [OM-197-Lys-AC]
[1]
  max. Inhibition: 100%
  50% inhibition LPS: >1 µg/mL
  max. Inhibition LPS: 0.001 µg/mL
[2]; product 1 μg/ml
  α TNF produced: 232 pg/mL
[2]; product 10 μg/ml
  α TNF produced: 184 pg/mL
[2]; product 100 μg/ml
  α TNF produced: 256 pg/mL
Bone marrow stem cells
  Max amplitude: > 2.02 O.D
  Min amplitude: 0.80 O.D
  Max concentration: > 50 µg/mL
  EC50 conc: > 14.6 µg/mL
  Min concentration: 0.90 µg/mL

## CCCCCCCCCCCC(=O)O[C@H](CCCCCCCCCCC)CC(=O)N[C@H](CC(=O)N[C@@H](CCCCN)C(=O)O)C(=O)NCCC[C@H](CO)NC(=O)C[C@H](O)CCCCCCCCCCC [OM-197-Lys]
[1]
  max. Inhibition: 100%
  50% inhibition LPS: 0.70 µg/mL
  max. Inhibition LPS: 0.0055 µg/mL
[2]; product 1 μg/ml
  α TNF produced: 284 pg/mL
[2]; product 10 μg/ml
  α TNF produced: 164 pg/mL
[2]; product 100 μg/ml
  α TNF produced: 20 pg/mL
Bone marrow stem cells
  Max amplitude: 1.56 O.D
  Min amplitude: < 0.86 O.D
  Max concentration: 25 µg/mL
  EC50 conc: 3.3 µg/mL (≈ 3.31 µM)
  Min concentration: < 0.39 µg/mL

## CCCCCCCCCCCC(=O)O[C@H](CCCCCCCCCCC)CC(=O)N[C@H](CC(=O)O)C(=O)NCCC[C@H](CO)NC(=O)C[C@H](O)CCCCCCCCCCC [OM-197-MC, N—[(R)-3-dodecanoyloxytetradecanoyl]-D-aspartic acid, α-N-{(4R)-5-hydroxy-4[(R)-3-hydroxytetradecanoylamino]-pentyl}amide]
[1]
  max. Inhibition: 100%
  50% inhibition LPS: 1 µg/mL
  max. Inhibition LPS: 0.0043 µg/mL
[2]; only at this concentration
  concentration at which a significant α TNF production level is induced: 100 µg/mL
[2]; product 1 μg/ml
  α TNF produced: 0 pg/mL
[2]; product 10 μg/ml
  α TNF produced: 0 pg/mL
[2]; product 100 μg/ml
  α TNF produced: 12 pg/mL
Bone marrow stem cells
  Max amplitude: 1.75 O.D
  Min amplitude: 0.80 O.D
  Max concentration: 64 µg/mL
  EC50 conc: 19.4 µg/mL (≈ 22.3 µM)
  Min concentration: 1.25 µg/mL

## CCCCCCCCCCCC(=O)O[C@H](CCCCCCCCCCC)CC(=O)N[C@H](CC(=O)O)C(=O)NCCC[C@H](COC(=O)CCCCCN)NC(=O)C[C@H](O)CCCCCCCCCCC [OM-197-MC-AC, N—[(R)-3-dodecanoyloxytetradecanoyl]-D-aspartic acid, α-N-{(4R)-5-(6-aminohexanoyloxy)-4-[(R)-3-hydroxytetradecanoylamino]pentyl}amide]
[1]
  max. Inhibition: 100%
  50% inhibition LPS: 0.88 µg/mL
  max. Inhibition LPS: 0.00003 µg/mL
[2]; product 1 μg/ml
  α TNF produced: 12 pg/mL
[2]; product 10 μg/ml
  α TNF produced: 140 pg/mL
[2]; product 100 μg/ml
  α TNF produced: 144 pg/mL
Bone marrow stem cells
  Max amplitude: 1.62 O.D
  Min amplitude: 0.80 O.D
  Max concentration: 50 µg/mL
  EC50 conc: 31.0 µg/mL (≈ 31.6 µM)
  Min concentration: 0.92 µg/mL

## CCCCCCCCCCCC(=O)O[C@H](CCCCCCCCCCC)CC(=O)N[C@H](CC(=O)O)C(=O)NCCC[C@H](COC(=O)CCCCCNC(=O)CCC(=O)O)NC(=O)C[C@H](O)CCCCCCCCCCC [OM-197-MC-AC-Succ, N—[(R)-3-dodecanoyloxytetradecanoyl]-D-aspartic acid, α-N-{(4R)-5-(6-succinylamidohexanoxyloxy)-4[(R)-3-hydroxy-tetradecanoylamino]pentyl}amide]
[1]
  max. Inhibition: 100%
  50% inhibition LPS: >1 µg/mL
  max. Inhibition LPS: 0.044 µg/mL
[2]; product 1 μg/ml
  α TNF produced: 0 pg/mL
[2]; product 10 μg/ml
  α TNF produced: 32 pg/mL
[2]; product 100 μg/ml
  α TNF produced: 40 pg/mL
Bone marrow stem cells
  Max amplitude: > 1.65 O.D
  Min amplitude: 0.80 O.D
  Max concentration: > 100 µg/mL
  EC50 conc: 33.7 µg/mL (≈ 31.2 µM)
  Min concentration: 2.04 µg/mL

## CCCCCCCCCCCC(=O)O[C@H](CCCCCCCCCCC)CC(=O)N[C@H](CC(=O)O)C(=O)NCCC[C@H](COC(=O)CCCCCNC(=O)CCC(=O)OC[C@H]1O[C@@H](n2cc(C)c(=O)[nH]c2=O)C[C@@H]1N=[N+]=[N-])NC(=O)C[C@H](O)CCCCCCCCCCC [OM-197-MC-AC-Succ-AZT]
[1]
  max. Inhibition: 100%
  50% inhibition LPS: 0.45 µg/mL
  max. Inhibition LPS: 0.0005 µg/mL
[2]; product 1 μg/ml
  α TNF produced: 108 pg/mL
[2]; product 10 μg/ml
  α TNF produced: 224 pg/mL
[2]; product 100 μg/ml
  α TNF produced: 64 pg/mL
Bone marrow stem cells
  Max amplitude: 1.08 O.D
  Min amplitude: 0.80 O.D
  Max concentration: 12.5 µg/mL
  EC50 conc: 3.3 µg/mL (≈ 2.48 µM)
  Min concentration: 2.11 µg/mL

## CCCCCCCCCCCC(=O)O[C@H](CCCCCCCCCCC)CC(=O)N[C@H](CC(=O)O)C(=O)NCCC[C@H](COC(=O)CCCCCNC(=O)CCC(=O)OC[C@@H]1C=C[C@H](n2cc(C)c(=O)[nH]c2=O)O1)NC(=O)C[C@H](O)CCCCCCCCCCC [OM-197-MC-AC-Succ-d4T]
[1]
  max. Inhibition: 100%
  50% inhibition LPS: 0.64 µg/mL
  max. Inhibition LPS: 0.00016 µg/mL
[2]; product 1 μg/ml
  α TNF produced: 0 pg/mL
[2]; product 10 μg/ml
  α TNF produced: 40 pg/mL
[2]; product 100 μg/ml
  α TNF produced: 52 pg/mL
Bone marrow stem cells
  Max amplitude: 1.40 O.D
  Min amplitude: 0.80 O.D
  Max concentration: 50 µg/mL
  EC50 conc: 25.4 µg/mL (≈ 19.7 µM)
  Min concentration: 2.81 µg/mL
